Assay results published in US7524964B2, “Tetrahydrothiopyrano pyrazole cannabinoid modulators” (Janssen Pharmaceutica NV, priority 2005, dated 2009).
Where two headings read alike, the source gives them in different places.

How the values were obtained:
[1] = target: human CB1 receptor (Homo sapiens, UniProt P21554); assay: Binding assay, cannabinoid CB1 receptor ([3H]-CP-55,940 displacement); design: expressed in transfected cells; host or cells: SK-N-MC cells, pcDNA3 CB-1 (human), semi-purified membranes; conditions: for inhibition at 0.2 µM: test concentration 0.2 μM (superscript a), read-out: CB1 binding percent inhibition
Procedure: (§1) Binding Assay for CB1 or CB2 Agonists or Inverse Agonists
(§2) The human CB-1 and CB-2 receptors were stably expressed in SK-N-MC cells transfected with pcDNA3 CB-1 (human) or pcDNA3 CB-2 (human). The cells were grown in T-180 cell culture flasks under standard cell culture conditions at 37° C. in a 5% CO2 atmosphere. The cells were harvested by trypsinization and homogenized in a homogenization buffer (10 mM Tris, 0.2 mM MgCl2, 5 mM KCl, with protease inhibitors aprotinin, leupeptin, pepstatin A and bacitracin) and centrifuged (2000 g). The supernatant was then centrifuged in 2M sucrose (31,300 g) to produce a semi-purified membrane pellet. The pellet was resuspended in homogenization and store at −80° C.
(§3) On the day of the assay, the pellet was thawed on ice and diluted in assay buffer (50 mM Tris-HCl, 5 mM MgCl2, 2.5 mM EDTA, 0.5 mg/mL fatty acid free bovine serum albumin, pH 7.5). The diluted membrane was added with buffer, test compound or standard and the radioligand [H]^3+-CP-55,940_(0.2 nM) to the wells of a 96-well polypropylene plate. Non-specific binding was measured in wells containing 10 uM WIN 55,212. The plate was covered and incubated for 90 minutes at 30° C. The contents were then aspirated onto a Packard Unifilter G/C filter bottom plate prewet with 0.5% polyethyleneimine. The wells of the polypropylene plate were rinsed and aspirated seven times with a 0.9% saline-0.5% Tween 20 solution. The Unifilter plate was dried, a scintillation cocktail was added to each well and the counts representing binding were quantitated in a TopCount scintillation counter.
(§4) The IC50 binding values for compounds tested were calculated by linear regression and were obtained from studies in which varying compound concentrations were used. Where an IC50 was not obtained, test results are provided as percent inhibition at a test concentration of ^a0.2 μM, ^b1 μM or ^c10 μM.

[2] = target: T1, human CB-2 receptor (Homo sapiens, UniProt P34972); assay: Binding assay, cannabinoid CB2 receptor ([3H]-CP-55,940 displacement); conditions: read-out: CB2 binding percent inhibition
T1 construct: expressed in transfected cells; host or cells: SK-N-MC cells, pcDNA3 CB-2 (human), semi-purified membranes
Procedure: as §1, §2, §3, §4

[3] = test concentration 0.2 μM (superscript a)

Chain of human CB1 receptor (P21554 whole entry): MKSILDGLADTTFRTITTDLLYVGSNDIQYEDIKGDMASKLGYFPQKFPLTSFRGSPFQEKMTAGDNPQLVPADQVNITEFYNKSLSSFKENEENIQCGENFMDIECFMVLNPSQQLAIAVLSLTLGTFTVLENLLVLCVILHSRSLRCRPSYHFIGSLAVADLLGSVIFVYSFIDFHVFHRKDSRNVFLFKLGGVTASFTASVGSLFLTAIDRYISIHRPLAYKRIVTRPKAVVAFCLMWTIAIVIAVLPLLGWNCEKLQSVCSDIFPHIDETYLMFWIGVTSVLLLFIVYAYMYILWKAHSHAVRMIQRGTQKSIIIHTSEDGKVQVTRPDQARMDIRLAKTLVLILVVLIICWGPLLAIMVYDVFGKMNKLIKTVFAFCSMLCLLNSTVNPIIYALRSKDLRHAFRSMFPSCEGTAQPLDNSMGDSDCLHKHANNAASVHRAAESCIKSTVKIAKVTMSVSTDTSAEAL
T1 sequence (P34972 whole entry): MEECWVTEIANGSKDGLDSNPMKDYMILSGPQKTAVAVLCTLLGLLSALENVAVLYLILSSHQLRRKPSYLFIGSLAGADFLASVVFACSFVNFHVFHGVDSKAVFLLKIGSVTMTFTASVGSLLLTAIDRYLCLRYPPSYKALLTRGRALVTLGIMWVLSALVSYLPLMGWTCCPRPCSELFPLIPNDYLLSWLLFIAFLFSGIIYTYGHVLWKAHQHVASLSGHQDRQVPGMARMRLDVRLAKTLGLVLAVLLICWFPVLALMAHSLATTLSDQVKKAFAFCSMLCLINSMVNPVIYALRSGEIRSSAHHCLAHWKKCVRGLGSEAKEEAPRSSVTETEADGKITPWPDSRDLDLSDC

With `O=C(N[C@H]1c2ccccc2C[C@H]1O)c1nn(-c2ccc(Cl)cc2Cl)c2c1CSC/C2=C\c1ccc(F)cc1` [Cpd 59, (7Z)-1-(2,4-dichloro-phenyl)-7-(4-fluoro-benzylidene)-1,4,6,7-tetrahydro-thiopyrano[4,3-c]pyrazole-3-carboxylic acid [(1S,2R)-2-hydroxy-indan-1-yl]-amide] the IC50 [1] was 42 nM and the inhibition at 0.2 µM [2] was 25%.
For `O=C(N[C@@H]1CCC[C@H]1O)c1nn(-c2ccc(Cl)cc2Cl)c2c1CSC/C2=C\c1ccc(F)cc1` [Cpd 60, (7Z)-1-(2,4-dichloro-phenyl)-7-(4-fluoro-benzylidene)-1,4,6,7-tetrahydro-thiopyrano[4,3-c]pyrazole-3-carboxylic acid [(1R,2R)-2-hydroxy-cyclopentyl]-amide], the inhibition at 0.2 µM [1] was 60% and the inhibition at 0.2 µM [2, 3] was 17%.
For `O=C(N[C@@H]1CCCC[C@H]1O)c1nn(-c2ccc(Cl)cc2Cl)c2c1CSC/C2=C\c1ccc(F)cc1` [Cpd 61, (7Z)-1-(2,4-dichloro-phenyl)-7-(4-fluoro-benzylidene)-1,4,6,7-tetrahydro-thiopyrano[4,3-c]pyrazole-3-carboxylic acid [(1R,2R)-2-hydroxy-cyclohexyl]-amide], the inhibition at 0.2 µM [1] was 60% and the inhibition at 0.2 µM [2, 3] was 31%.
Molecule `C[C@H](NC(=O)c1nn(-c2ccc(Cl)cc2Cl)c2c1CSC/C2=C\c1ccc(F)cc1)c1ccccc1` [Cpd 62, (7Z)-1-(2,4-dichloro-phenyl)-7-(4-fluoro-benzylidene)-1,4,6,7-tetrahydro-thiopyrano[4,3-c]pyrazole-3-carboxylic acid [(1S)-1-phenyl-ethyl]-amide] has an IC50 [1] of 48 nM and an inhibition at 0.2 µM [2, 3] of 17%.
In the case of `C[C@@H](NC(=O)c1nn(-c2ccc(Cl)cc2Cl)c2c1CSC/C2=C\c1ccc(F)cc1)c1ccccc1` [Cpd 63, (7Z)-1-(2,4-dichloro-phenyl)-7-(4-fluoro-benzylidene)-1,4,6,7-tetrahydro-thiopyrano[4,3-c]pyrazole-3-carboxylic acid [(1R)-1-phenyl-ethyl]-amide], the IC50 [1] is reported as 9 nM and the inhibition at 0.2 µM [2, 3] is reported as 6%.
With `CC(C)(C)OC(=O)N1CCN(NC(=O)c2nn(-c3ccc(Cl)cc3Cl)c3c2CSC/C3=C\c2ccc(F)cc2)CC1` [Cpd 64, 4-{[(7Z)-1-(2,4-dichloro-phenyl)-7-(4-fluoro-benzylidene)-1,4,6,7-tetrahydro-thiopyrano[4,3-c]pyrazole-3-carbonyl]-amino}-piperazine-1-carboxylic acid tert-butyl ester] the IC50 [1] was 24 nM and the inhibition at 0.2 µM [2] was 0%.
`C[C@H](NC(=O)c1nn(-c2ccc(Cl)cc2Cl)c2c1CS(=O)(=O)C/C2=C\c1ccc(F)cc1)c1ccccc1` [Cpd 65, (7Z)-1-(2,4-dichloro-phenyl)-7-(4-fluoro-benzylidene)-5,5-dioxo-4,5,6,7-tetrahydro-1H-5λ^6-thiopyrano[4,3-c]pyrazole-3-carboxylic acid [(1S)-1-phenyl-ethyl]-amide] was tested, and the IC50 [1] was 5 nM and the inhibition at 0.2 µM [2, 3] was 17%.
Molecule `C[C@@H](NC(=O)c1nn(-c2ccc(Cl)cc2Cl)c2c1CS(=O)(=O)C/C2=C\c1ccc(F)cc1)c1ccccc1` [Cpd 66, (7Z)-1-(2,4-dichloro-phenyl)-7-(4-fluoro-benzylidene)-5,5-dioxo-4,5,6,7-tetrahydro-1H-5λ^6-thiopyrano[4,3-c]pyrazole-3-carboxylic acid [(1R)-1-phenyl-ethyl]-amide] has an IC50 [1] of 4 nM and an inhibition at 0.2 µM [2, 3] of 24%.
`O=C(N[C@@H]1CCC[C@H]1O)c1nn(-c2ccc(Cl)cc2Cl)c2c1CS(=O)(=O)C/C2=C\c1ccc(F)cc1` [Cpd 67, (7Z)-1-(2,4-dichloro-phenyl)-7-(4-fluoro-benzylidene)-5,5-dioxo-4,5,6,7-tetrahydro-1H-5λ^6-thiopyrano[4,3-c]pyrazole-3-carboxylic acid [(1R,2R)-2-hydroxy-cyclopentyl]-amide] was tested, and the inhibition at 0.2 µM [1] was 46% and the inhibition at 0.2 µM [2, 3] was 15%.
For `O=C(N[C@H]1CCCC[C@@H]1O)c1nn(-c2ccc(Cl)cc2Cl)c2c1CS(=O)(=O)C/C2=C\c1ccc(F)cc1` [Cpd 68, (7Z)-1-(2,4-dichloro-phenyl)-7-(4-fluoro-benzylidene)-5,5-dioxo-4,5,6,7-tetrahydro-1H-5λ^6-thiopyrano[4,3-c]pyrazole-3-carboxylic acid [(1S,2S)-2-hydroxy-cyclohexyl]-amide], the inhibition at 0.2 µM [1] was 52% and the inhibition at 0.2 µM [2, 3] was 19%.
Work on `O=C(N[C@@H]1c2ccccc2C[C@@H]1O)c1nn(-c2ccc(Cl)cc2Cl)c2c1CS(=O)(=O)C/C2=C\c1ccc(F)cc1` [Cpd 69, (7Z)-1-(2,4-dichloro-phenyl)-7-(4-fluoro-benzylidene)-5,5-dioxo-4,5,6,7-tetrahydro-1H-5λ^6-thiopyrano[4,3-c]pyrazole-3-carboxylic acid [(1R,2S)-2-hydroxy-indan-1-yl]-amide] yielded an IC50 [1] of 23 nM and an inhibition at 0.2 µM [2, 3] of 10%.
For `O=C(N[C@H]1c2ccccc2C[C@H]1O)c1nn(-c2ccc(Cl)cc2Cl)c2c1CS(=O)(=O)C/C2=C\c1ccc(F)cc1` [Cpd 70, (7Z)-1-(2,4-dichloro-phenyl)-7-(4-fluoro-benzylidene)-5,5-dioxo-4,5,6,7-tetrahydro-1H-5λ^6-thiopyrano[4,3-c]pyrazole-3-carboxylic acid [(1S,2R)-2-hydroxy-indan-1-yl]-amide], the IC50 [1] was 12 nM and the inhibition at 0.2 µM [2, 3] was 19%.
`NC(=O)c1nn(-c2ccc(Cl)cc2Cl)c2c1CS(=O)(=O)C/C2=C\c1ccc(F)cc1` [Cpd 71, (7Z)-1-(2,4-dichloro-phenyl)-7-(4-fluoro-benzylidene)-5,5-dioxo-4,5,6,7-tetrahydro-1H-5λ^6-thiopyrano[4,3-c]pyrazole-3-carboxylic acid amide] showed an inhibition at 0.2 µM [1] of 18% and an inhibition at 0.2 µM [2, 3] of 13%.
`O=C(NCc1ccccn1)c1nn(-c2ccc(Cl)cc2Cl)c2c1CSC/C2=C\c1ccc(F)cc1` [Cpd 72, (7Z)-1-(2,4-dichloro-phenyl)-7-(4-fluoro-benzylidene)-1,4,6,7-tetrahydro-thiopyrano[4,3-c]pyrazole-3-carboxylic acid (pyridin-2-ylmethyl)-amide] gave an inhibition at 0.2 µM [1] of 48% and an inhibition at 0.2 µM [2, 3] of 10%.
In the case of `O=C(NCc1ccccn1)c1nn(-c2ccc(Cl)cc2Cl)c2c1CS(=O)(=O)C/C2=C\c1ccc(F)cc1` [Cpd 73, (7Z)-1-(2,4-dichloro-phenyl)-7-(4-fluoro-benzylidene)-5,5-dioxo-4,5,6,7-tetrahydro-1H-5λ^6-thiopyrano[4,3-c]pyrazole-3-carboxylic acid (pyridin-2-ylmethyl)-amide], the inhibition at 0.2 µM [1] is reported as 56% and the inhibition at 0.2 µM [2, 3] is reported as 13%.
`C[C@H](NC(=O)c1nn(-c2ccc(Cl)cc2Cl)c2c1C[S+]([O-])C/C2=C\c1ccc(F)cc1)c1ccccc1` (stereo partly drawn) [Cpd 74, (7Z)-1-(2,4-dichloro-phenyl)-7-(4-fluoro-benzylidene)-5-oxo-4,5,6,7-tetrahydro-1H-5λ^4-thiopyrano[4,3-c]pyrazole-3-carboxylic acid [(1S)-1-phenyl-ethyl]-amide] was tested, and the inhibition at 0.2 µM [1] was 45% and the inhibition at 0.2 µM [2, 3] was 8%.
For `C[C@@H](NC(=O)c1nn(-c2ccc(Cl)cc2Cl)c2c1C[S+]([O-])C/C2=C\c1ccc(F)cc1)c1ccccc1` (stereo partly drawn) [Cpd 75, (7Z)-1-(2,4-dichloro-phenyl)-7-(4-fluoro-benzylidene)-5-oxo-4,5,6,7-tetrahydro-1H-5λ^4-thiopyrano[4,3-c]pyrazole-3-carboxylic acid [(1R)-1-phenyl-ethyl]-amide], the IC50 [1] was 14 nM and the inhibition at 0.2 µM [2, 3] was 2%.
For `O=C(N[C@@H]1CCC[C@H]1O)c1nn(-c2ccc(Cl)cc2Cl)c2c1C[S+]([O-])C/C2=C\c1ccc(F)cc1` (stereo partly drawn) [Cpd 76, (7Z)-1-(2,4-dichloro-phenyl)-7-(4-fluoro-benzylidene)-5-oxo-4,5,6,7-tetrahydro-1H-5λ^4-thiopyrano[4,3-c]pyrazole-3-carboxylic acid [(1R,2R)-2-hydroxy-cyclopentyl]-amide], the inhibition at 0.2 µM [1] was 20% and the inhibition at 0.2 µM [2, 3] was 0%.
Molecule `O=C(NNc1ccc(Cl)cc1Cl)c1nn(-c2ccc(Cl)cc2Cl)c2c1C[S+]([O-])C/C2=C\c1ccc(F)cc1` (stereo not shown) [Cpd 77, (7Z)-1-(2,4-dichloro-phenyl)-7-(4-fluoro-benzylidene)-5-oxo-4,5,6,7-tetrahydro-1H-5λ^4-thiopyrano[4,3-c]pyrazole-3-carboxylic acid N′-(2,4-dichloro-phenyl)-hydrazide] has an inhibition at 0.2 µM [1] of 55% and an inhibition at 0.2 µM [2, 3] of 9%.
`C[C@@H](NC(=O)c1c2c(nn1-c1ccc(Cl)cc1Cl)/C(=C/c1ccc(F)cc1)CSC2)c1ccccc1` [Cpd 78, (7Z)-2-(2,4-dichloro-phenyl)-7-(4-fluoro-benzylidene)-2,4,6,7-tetrahydro-thiopyrano[4,3-c]pyrazole-3-carboxylic acid [(1R)-1-phenyl-ethyl]-amide] was tested, and the inhibition at 0.2 µM [1] was 62% and the inhibition at 0.2 µM [2, 3] was 11%.
